± gives the standard deviation of the averaged measurements.

What all share (assay): level (log10 ratio to DMSO vehicle control); higher = higher biomarker level / cell amount than vehicle control
Compound in test [1]: CN(C(=O)C(F)(F)C(F)(F)C(F)(F)F)[Si](C)(C)C [N-Methyl-N-trimethylsilylheptafluorobutyramide] (in DMSO)
The method, then:
(§1)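 BioMAP Diversity Plus panel of 12 human primary cell co-culture systems (3C, 4H, LPS, SAg, BT, BF4T, BE3C, CASM3C, HDF3CGF, KF3CT, MyoF, Mphg). Compounds were added 1 h before stimulation and left for 24 h (MyoF 48 h; BT 72 h for soluble read-outs or 6 d for IgG). Biomarkers were read by ELISA, cytotoxicity by SRB, PBMC viability and proliferation by Alamar Blue. Each well value was divided by the mean of 8 DMSO control wells on the same plate and log10 transformed; duplicate blinded samples were tested at 4 concentrations.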

Compound in test [2]: CO[Si](C)(CCC(F)(F)C(F)(F)C(F)(F)C(F)(F)C(F)(F)C(F)(F)F)OC [Dimethoxymethyl((perfluorohexyl)ethyl)silane] (in DMSO)
The method, then: as §1

Compound in test [3]: NS(=O)(=O)C(F)(F)C(F)(F)C(F)(F)C(F)(F)C(F)(F)C(F)(F)C(F)(F)C(F)(F)F [Perfluorooctanesulfonamide] (in DMSO)
On the procedure: as §1

Compound in another test: O=C(O)C(F)(F)C(F)(F)C(F)(F)C(F)(F)C(F)(F)C(F)(F)C(F)(F)C(F)(F)C(F)(F)C(F)(F)F [Perfluoroundecanoic acid] (in DMSO)
The note with it: 6700 nM. The method, then: as §1

Compound in test [4]: O=C(O)C=C(C(F)(F)F)C(F)(F)F [3,3-Bis(trifluoromethyl)-2-propenoic acid] (in DMSO)
The method, then: as §1

Compound in test [5]: O=C(O)CCC(F)(C(F)(F)F)C(F)(F)F [4,4-bis(Trifluoromethyl)-4-fluoropropanoic acid] (in DMSO)
On the procedure:
as §1

Compound in test [6]: OCC(F)(F)OC(F)(F)C(F)(F)OC(F)(F)C(F)(F)OC(F)(F)CO [1H,1H,11H,11H-Perfluorotetraethylene glycol] (in DMSO)
The method, then:
as §1

Compound in test [7]: OCCC(F)(F)C(F)(F)C(F)(F)C(F)(F)F [4:2 Fluorotelomer alcohol] (in DMSO)
The method, then: as §1

For HDF3CGF:MMP-1, the “level (log10)” value is -0.0195 ± 0.016 in test [1] (6700 nM); -0.015 ± 0.014 in test [1] (20000 nM); -0.008 ± 0.045 in test [1] (60000 nM); -0.0165 ± 0.018 in test [2] (6700 nM); -0.005 ± 0.042 in test [2] (20000 nM); 0.0145 ± 0.026 in test [3] (6700 nM). In addition, the “level (log10)” value in test [3] (20000 nM) was -0.206 ± 0.096; with Perfluoroundecanoic acid, -0.004 ± 0.0057; in test [4] (6700 nM) it was -0.015 ± 0.0014; in test [4] (20000 nM) it was -0.013 ± 0.017; in test [4] (60000 nM), -0.001 ± 0.0099; in test [5] (6700 nM) it was 0.0015 ± 0.015. For the same test system, the “level (log10)” value is -0.0075 ± 0.029 in test [5] (20000 nM); -0.0145 ± 0.054 in test [5] (60000 nM); 0.0265 ± 0.0092 in test [6] (6700 nM); 0.0845 ± 0.021 in test [6] (20000 nM); 0.095 ± 0.0014 in test [6] (60000 nM); -0.025 ± 0.0057 in test [7] (6700 nM). The “level (log10)” value is -0.0075 ± 0.011 in test [7] (20000 nM) and 0.0035 ± 0.0035 in test [7] (60000 nM).

As to HDF3CGF:PAI-I, the “level (log10)” value in test [1] (6700 nM) was -0.013 ± 0.0042; in test [1] (20000 nM), 0.0015 ± 0.023; in test [1] (60000 nM), 0.0385 ± 0.04; in test [2] (6700 nM), -0.0035 ± 0.0092; in test [2] (20000 nM), 0.0105 ± 0.015; in test [3] (6700 nM) it was 0.005 ± 0.033. Further, the “level (log10)” value is -0.45 ± 0.26 in test [3] (20000 nM); -0.011 ± 0.0057 in the test with Perfluoroundecanoic acid; -0.0265 ± 0.015 in test [4] (6700 nM); -0.069 ± 0.0099 in test [4] (20000 nM); -0.153 ± 0.025 in test [4] (60000 nM); 0.0145 ± 0.011 in test [5] (6700 nM). For the same test system, the “level (log10)” value in test [5] (20000 nM) is -0.0095 ± 0.00071; in test [5] (60000 nM), -0.014 ± 0.024; in test [6] (6700 nM), -0.0265 ± 0.033; in test [6] (20000 nM), -0.0285 ± 0.013; in test [6] (60000 nM), -0.036 ± 0.027; in test [7] (6700 nM), -0.057 ± 0.086. For the same test system, the “level (log10)” value in test [7] (20000 nM) is 0.008 ± 0.072; in test [7] (60000 nM), -0.0255 ± 0.076.

Take HDF3CGF:Proliferation 72hr: the “level (log10)” value in test [1] (6700 nM) was found to be 0.0075 ± 0.013; in test [1] (20000 nM) it was 0.052 ± 0.042; in test [1] (60000 nM), 0.0225 ± 0.011; in test [2] (6700 nM), 0.02 ± 0.011; in test [2] (20000 nM) it was 0.007 ± 0.037; in test [3] (6700 nM), 0.0105 ± 0.036. Besides, the “level (log10)” value is -0.58 ± 0.15 in test [3] (20000 nM); -0.557 ± 0.11 in the test with Perfluoroundecanoic acid; -0.0325 ± 0.021 in test [4] (6700 nM); -0.086 ± 0.069 in test [4] (20000 nM); -0.24 ± 0.066 in test [4] (60000 nM); -0.0275 ± 0.035 in test [5] (6700 nM). Besides, the “level (log10)” value in test [5] (20000 nM) was 0.0025 ± 0.028; in test [5] (60000 nM), 0.037 ± 0.0014; in test [6] (6700 nM), -0.125 ± 0.1; in test [6] (20000 nM), -0.178 ± 0.12; in test [6] (60000 nM), -0.358 ± 0.064; in test [7] (6700 nM) it was -0.014 ± 0.045. Moreover, the “level (log10)” value in test [7] (20000 nM) is -0.022 ± 0.0014; in test [7] (60000 nM), 0.033 ± 0.027.

For the test system HDF3CGF:SRB, the “level (log10)” value in test [1] (6700 nM) is -0.048 ± 0.0028; in test [1] (20000 nM) it was -0.0015 ± 0.056; in test [1] (60000 nM) it was 0.0205 ± 0.086; in test [2] (6700 nM) it was 0.0315 ± 0.025; in test [2] (20000 nM), 0.0455 ± 0.036; in test [3] (6700 nM) it was -0.028 ± 0.055. The “level (log10)” value is 0.0615 ± 0.019 in test [3] (20000 nM); 0.0395 ± 0.011 with Perfluoroundecanoic acid; -0.014 ± 0.028 in test [4] (6700 nM); 0.0125 ± 0.021 in test [4] (20000 nM); -0.022 ± 0.02 in test [4] (60000 nM); -0.0385 ± 0.07 in test [5] (6700 nM). Besides, the “level (log10)” value was -0.0245 ± 0.042 in test [5] (20000 nM); 0.045 ± 0.041 in test [5] (60000 nM); -0.0225 ± 0.043 in test [6] (6700 nM); -0.023 ± 0.1 in test [6] (20000 nM); -0.0555 ± 0.077 in test [6] (60000 nM); -0.0105 ± 0.015 in test [7] (6700 nM). Besides, the “level (log10)” value in test [7] (20000 nM) is -0.022 ± 0.0028; in test [7] (60000 nM), 0.011 ± 0.013.

As to HDF3CGF:TIMP-1, the “level (log10)” value in test [1] (6700 nM) is -0.036 ± 0.017; in test [1] (20000 nM) it was -0.038 ± 0.018; in test [1] (60000 nM), -0.031 ± 0.0071; in test [2] (6700 nM), -0.023 ± 0.027; in test [2] (20000 nM), -0.0285 ± 0.022; in test [3] (6700 nM) it was 0.065 ± 0.068. Also, the “level (log10)” value in test [3] (20000 nM) was -0.138 ± 0.15; in the test with Perfluoroundecanoic acid, 0.0385 ± 0.043; in test [4] (6700 nM), -0.0935 ± 0.049; in test [4] (20000 nM) it was -0.125 ± 0.065; in test [4] (60000 nM), -0.0675 ± 0.013; in test [5] (6700 nM), -0.022 ± 0.041. Also, the “level (log10)” value in test [5] (20000 nM) was -0.021 ± 0.044; in test [5] (60000 nM) it was -0.036 ± 0.092; in test [6] (6700 nM), -0.023 ± 0.089; in test [6] (20000 nM), 0.0015 ± 0.11; in test [6] (60000 nM), -0.073 ± 0.092; in test [7] (6700 nM), -0.045 ± 0.018. For the same test system, the “level (log10)” value in test [7] (20000 nM) is -0.02 ± 0.059; in test [7] (60000 nM), 0.0035 ± 0.005.

As to HDF3CGF:TIMP-2, the “level (log10)” value in test [1] (6700 nM) was -0.0155 ± 0.036; in test [1] (20000 nM) it was 0.002 ± 0.017; in test [1] (60000 nM), -0.0065 ± 0.049; in test [2] (6700 nM), 0.002 ± 0.027; in test [2] (20000 nM) it was -0.03 ± 0.0014; in test [3] (6700 nM), -0.0545 ± 0.0021. Further, the “level (log10)” value was -0.102 ± 0.044 in test [3] (20000 nM); 0.009 ± 0.0042 in the test with Perfluoroundecanoic acid; -0.0175 ± 0.013 in test [4] (6700 nM); -0.0595 ± 0.028 in test [4] (20000 nM); -0.082 ± 0.03 in test [4] (60000 nM); -0.042 ± 0.052 in test [5] (6700 nM). Further, the “level (log10)” value is -0.041 ± 0.045 in test [5] (20000 nM); -0.0265 ± 0.013 in test [5] (60000 nM); -0.0285 ± 0.011 in test [6] (6700 nM); -0.046 ± 0.11 in test [6] (20000 nM); -0.121 ± 0.07 in test [6] (60000 nM); -0.0305 ± 0.026 in test [7] (6700 nM). The figures for the “level (log10)” value in test [7] (20000 nM) and in test [7] (60000 nM) were -0.01 ± 0.017 and -0.044 ± 0.027, respectively.

Regarding KF3CT:CCL2/MCP-1, the “level (log10)” value in test [1] (6700 nM) is -0.0175 ± 0.0092; in test [1] (20000 nM), -0.0305 ± 0.021; in test [1] (60000 nM) it was 0.0205 ± 0.056; in test [2] (6700 nM), -0.0325 ± 0.0092; in test [2] (20000 nM), 0.008 ± 0.059; in test [3] (6700 nM), 0.025 ± 0.016. Further, the “level (log10)” value was 0.116 ± 0.037 in test [3] (20000 nM); -0.075 ± 0.011 with Perfluoroundecanoic acid; -0.0055 ± 0.036 in test [4] (6700 nM); -0.015 ± 0.014 in test [4] (20000 nM); -0.028 ± 0.052 in test [4] (60000 nM); -0.011 ± 0.0057 in test [5] (6700 nM). Also, the “level (log10)” value is -0.0145 ± 0.03 in test [5] (20000 nM); 0.0015 ± 0.0092 in test [5] (60000 nM); -0.025 ± 0.024 in test [6] (6700 nM); -0.044 ± 0.024 in test [6] (20000 nM); -0.005 ± 0.0042 in test [6] (60000 nM); -0.001 ± 0.02 in test [7] (6700 nM). The entries for the “level (log10)” value in test [7] (20000 nM) and in test [7] (60000 nM) were -0.0675 ± 0.035 and 0.009 ± 0.048, respectively.

The values are drawn from the supplement of paper PMC10331698.
